Test results reported in patent publication US8916575B2, “Quinazoline derivatives for the treatment of viral infections and further diseases” (Janssen R&D Ireland, priority 2011, dated 2014).

Target: T1, human TLR7 (Homo sapiens, UniProt Q9NYK1)
T1 construct: expressed in transfected cells; host or cells: HEK293
T1 sequence (Q9NYK1 27-1049): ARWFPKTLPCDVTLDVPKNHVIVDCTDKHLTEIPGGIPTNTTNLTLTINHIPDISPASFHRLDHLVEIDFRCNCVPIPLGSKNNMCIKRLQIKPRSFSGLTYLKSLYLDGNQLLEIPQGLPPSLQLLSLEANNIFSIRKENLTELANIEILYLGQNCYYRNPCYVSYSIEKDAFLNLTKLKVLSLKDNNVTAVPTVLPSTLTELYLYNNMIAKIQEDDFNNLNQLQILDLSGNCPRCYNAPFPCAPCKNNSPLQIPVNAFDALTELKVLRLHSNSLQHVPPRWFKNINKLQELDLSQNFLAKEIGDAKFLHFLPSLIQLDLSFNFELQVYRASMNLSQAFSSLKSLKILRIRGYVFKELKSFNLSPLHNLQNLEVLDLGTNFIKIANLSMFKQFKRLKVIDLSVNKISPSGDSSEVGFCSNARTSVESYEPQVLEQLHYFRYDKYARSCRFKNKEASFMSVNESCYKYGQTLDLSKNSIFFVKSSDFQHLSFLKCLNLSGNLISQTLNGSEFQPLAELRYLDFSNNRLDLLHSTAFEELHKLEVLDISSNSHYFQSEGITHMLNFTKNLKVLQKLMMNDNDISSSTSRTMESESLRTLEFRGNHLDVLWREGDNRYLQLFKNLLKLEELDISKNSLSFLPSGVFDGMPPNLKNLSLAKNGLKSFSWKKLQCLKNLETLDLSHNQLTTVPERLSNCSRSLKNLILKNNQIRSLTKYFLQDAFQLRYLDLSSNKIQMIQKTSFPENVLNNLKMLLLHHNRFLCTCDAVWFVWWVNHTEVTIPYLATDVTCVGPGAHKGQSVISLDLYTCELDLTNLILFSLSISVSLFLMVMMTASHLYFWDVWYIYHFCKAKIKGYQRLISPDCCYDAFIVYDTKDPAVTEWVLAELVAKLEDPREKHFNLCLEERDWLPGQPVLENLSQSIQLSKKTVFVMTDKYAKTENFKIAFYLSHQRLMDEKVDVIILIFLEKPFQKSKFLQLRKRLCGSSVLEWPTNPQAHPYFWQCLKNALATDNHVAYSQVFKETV
Test: TLR7 wild type NFκB-luc cellular reporter assay
Format: cell-based
Design: unit not given here
Details: HEK293 NFκB-luc reporter, 6 hours incubation; second part of table
Procedure: The ability of compounds to activate human TLR7 and/or TLR8 was assessed in a cellular reporter assay using HEK293 cells transiently transfected with a TLR7 or TLR8 expression vector and NFκB-luc reporter construct. In one instance the TLR expression construct expresses the respective wild type sequence or a mutant sequence comprising a deletion in the second leucine-rich repeat of the TLR.
Briefly, HEK293 cells were grown in culture medium (DMEM supplemented with 10% FCS and 2 mM Glutamine). For transfection of cells in 10 cm dishes, cells were detached with Trypsin-EDTA, transfected with a mix of CMV-TLR7 or TLR8 plasmid (750 ng), NFκB-luc plasmid (375 ng) and a transfection reagent and incubated 24 hours at 37° C. in a humidified 5% CO2 atmosphere. Transfected cells were then detached with Trypsin-EDTA, washed in PBS and resuspended in medium to a density of 1.67×10^5 cells/mL. Thirty microliters of cells were then dispensed into each well in 384-well plates, where 10 μL of compound in 4% DMSO was already present. […] Dose response curves were generated from measurements performed in quadruplicates. Lowest effective concentrations (LEC) values, defined as the concentration that induces an effect which is at least two fold above the standard deviation of the assay, were determined for each compound.

Row | SMILES | TLR7-wt (LEC)
1 | CCCC[C@@H](CCO)Nc1nc(N)nc2ccc(OC)cc12 [Compound 88] | 1.85
2 | CCCCNc1nc(N)nc2cccc(OC)c12 [Compound 9] | 0.41
3 | CCC[C@@H](CO)Nc1nc(N)nc2cc(Cl)ccc12 [Compound 70] | 0.41
4 | CCCCNc1nc(N)nc2cccc(OCCOC)c12 [Compound 11] | 0.08
5 | CCC[C@@H](CO)Nc1nc(N)nc2c(Cl)cccc12 [Compound 69] | 7.48
6 | CCC[C@@H](CO)Nc1nc(N)nc2c(F)cccc12 [Compound 47] | 0.67
7 | CCCCNc1nc(N)nc2ccc(Br)cc12 [Compound 85] | 0.51
8 | CCCCNc1nc(N)nc2cc(CO)ccc12 [Compound 18] | 0.13
9 | CCC[C@@H](CCO)Nc1nc(N)nc2ccc(C(C)C)cc12 [Compound 26] | 3.60
10 | CCC[C@@H](CO)Nc1nc(N)nc2cc(OC)ccc12 [Compound 56] | 0.39
11 | CCC[C@@H](CCO)Nc1nc(N)nc2cc(C)ccc12 [Compound 53] | 0.06
12 | CCCCNc1nc(N)nc2ccc(CO)cc12 [Compound 24] | 0.93
13 | CCC[C@@H](CCO)Nc1nc(N)nc2ccc(CC)cc12 [Compound 25] | 0.57
14 | CCC[C@@H](CCO)Nc1nc(N)nc2cccc(F)c12 [Compound 66] | 0.22
15 | CCC[C@@H](CO)Nc1nc(N)nc2cc(C(=O)OC)ccc12 [Compound 86] | 2.01
16 | CCC[C@@H](CCO)Nc1nc(N)nc2ccc(OC)cc12 [Compound 79] | 11.87
17 | CCCCNc1nc(N)nc2cc(OC)ccc12 [Compound 39] | 0.94
18 | CCC[C@@H](CO)Nc1nc(N)nc2cc(C)ccc12 [Compound 44] | 0.43
19 | CCC[C@@H](CCO)Nc1nc(N)nc2ccc(Oc3ccc(C(F)(F)F)cc3Cl)cc12 [Compound 27] | 12.95
20 | CCC[C@@H](CO)Nc1nc(N)nc2cccc(F)c12 [Compound 50] | 0.32
21 | CCCC[C@@H](CO)Nc1nc(N)nc2cc(OC)ccc12 [Compound 76] | 0.26
22 | CCC[C@@H](CCO)Nc1nc(N)nc2ccc(C)cc12 [Compound 54] | 0.54

Row | SMILES | TLR7-wt (LEC)
23 | CCC[C@@H](CO)Nc1nc(N)nc2ccc(F)cc12 [Compound 49] | 2.09
24 | CCCC[C@@H](CO)Nc1nc(N)nc2ccc(F)cc12 [Compound 61] | 0.57
25 | CCCCNc1nc(N)nc2cc(Cl)c3c(c12)OCCO3 [Compound 28] | 2.06
26 | CCCCNc1nc(N)nc2cc(F)c(F)cc12 [Compound 42] | 1.81
27 | CCC[C@@H](CO)Nc1nc(N)nc2ccc(CO)cc12 [Compound 34] | 10.77
28 | CCCC[C@@H](CCO)Nc1nc(N)nc2cc(C)ccc12 [Compound 73] | 0.03
29 | C#CCOc1cccc2nc(N)nc(NCCCC)c12 [Compound 30] | 0.05
30 | CCCC[C@@H](CCO)Nc1nc(N)nc2cc(OC)ccc12 [Compound 87] | 0.16
31 | CCCCNc1nc(N)nc2cc(OC)c(OCc3ccccc3)cc12 [Compound 89] | 1.84
32 | CCCC[C@@H](CCO)Nc1nc(N)nc2cccc(C)c12 [Compound 75] | 0.14
33 | CC[C@H](C)[C@@H](CO)Nc1nc(N)nc2c(F)cccc12 [Compound 67] | 2.50
34 | CCCCNc1nc(N)nc2cc(C(=O)OC)ccc12 [Compound 17] | 5.10
35 | CCCC[C@@H](CO)Nc1nc(N)nc2cccc(C)c12 [Compound 52] | 0.41
36 | CC[C@H](C)[C@@H](CO)Nc1nc(N)nc2ccc(OC)cc12 [Compound 80] | >25
37 | CCCC[C@@H](CCO)Nc1nc(N)nc2ccc(C)cc12 [Compound 74] | 0.44
38 | CCCC[C@@H](CO)Nc1nc(N)nc2cc(F)ccc12 [Compound 60] | 0.23
39 | CCC[C@@H](CCO)Nc1nc(N)nc2cc(OC)ccc12 [Compound 78] | 0.20
40 | CCC[C@@H](CO)Nc1nc(N)nc2cccc(-c3ccccc3)c12 [Compound 10] | 6.08
41 | CCCC[C@@H](CO)Nc1nc(N)nc2cccc(F)c12 [Compound 62] | 0.75
42 | CCCCNc1nc(N)nc2ccc(OC)cc12 [Compound 40] | 5.64
43 | CCCC[C@@H](CO)Nc1nc(N)nc2ccc(C)cc12 [Compound 51] | 0.60
44 | CCC[C@@H](CCO)Nc1nc(N)nc2c(F)cccc12 [Compound 63] | 0.29

Row | SMILES | TLR7-wt (LEC)
45 | CCCCNc1nc(N)nc2cccc(OC(C)C)c12 [Compound 31] | 0.09
46 | CCC[C@@H](CO)Nc1nc(N)nc2cc(F)c(F)cc12 [Compound 72] | 2.59
47 | CCCCNc1nc(N)nc2cccc(Cl)c12 [Compound 41] | 0.99
48 | CCCCNc1nc(N)nc2cccc(CCc3ccccc3)c12 [Compound 32] | 0.13
49 | CCC[C@@H](CCO)Nc1nc(N)nc2ccc(F)cc12 [Compound 65] | 0.94
50 | CCC[C@@H](CO)Nc1nc(N)nc2cccc(OC)c12 [Compound 58] | 0.18
51 | CCC[C@@H](CO)Nc1nc(N)nc2cc(F)ccc12 [Compound 48] | 0.54
52 | CCCCCNc1nc(N)nc2ccc(Br)cc12 [Compound 13] | 0.76
53 | CCCCNc1nc(N)nc2c(F)cccc12 [Compound 37] | 0.16
54 | CCC[C@@H](CO)Nc1nc(N)nc2cc(CO)ccc12 [Compound 33] | 1.88
55 | CCCC[C@@H](CCO)Nc1nc(N)nc2cc(F)ccc12 [Compound 82] | 0.04
56 | CCC[C@@H](CO)Nc1nc(N)nc2ccc(C)cc12 [Compound 45] | 0.41
57 | CC[C@H](C)[C@@H](CO)Nc1nc(N)nc2ccc(F)cc12 [Compound 68] | 4.57
58 | CCCC[C@@H](CO)Nc1nc(N)nc2c(F)cccc12 [Compound 59] | 0.29
59 | CCCC[C@@H](CCO)Nc1nc(N)nc2ccc(F)cc12 [Compound 83] | 1.59
60 | CCCC[C@@H](CO)Nc1nc(N)nc2ccc(OC)cc12 [Compound 77] | 3.48
61 | CCCC[C@@H](CCO)Nc1nc(N)nc2cccc(F)c12 [Compound 84] | 0.44
62 | CCCCNc1nc(N)nc2cccc(C)c12 [Compound 36] | 0.47
63 | CCCCNc1nc(N)nc2ccc(F)cc12 [Compound 38] | 0.29
64 | CCCCNc1nc(N)nc2ccc(-n3cnc(C)c3)cc12 [Compound 21] | >25
65 | CCCCNc1nc(N)nc2ccc(Oc3ccc(C(F)(F)F)cc3Cl)cc12 [Compound 35] | 4.15
66 | CCCC[C@@H](CCO)Nc1nc(N)nc2c(F)cccc12 [Compound 81] | 0.11
